Experimental findings from US20230057984A1, “NORMALIZATION OF CULTURE OF CORNEAL ENDOTHELIAL CELLS” (KYOTO PREFECTURAL PUBLIC UNIVERSITY CORPORATION, priority 2011, published 2023) are described below.

The structures appear in SMILES notation.

This test deals with Human corneal endothelial cells. Briefly: Culture of human corneal endothelial cells with SB431542, cell form (Example 5). Type of test: cell-based. As to conditions: HCEC, base culture medium with SB431542 1 μmol/L; SB431542-free cells transformed in a fibroblastic manner, multi-layered. As to the method:
• Cynomolgus monkey corneal endothelial cells (MCEC; source of supply and culturing method): the MCECs were cultured by the improved-type protocol described previously [Koizumi N, et al. (2007) Invest Ophthalmol Vis Sci 48: 4519-4526], [Li W, et al. (2007) Invest Ophthalmol Vis Sci 48: 614-620]. Briefly speaking, eyeballs of cynomolgus monkeys, which were humanely killed for another purpose, were purchased (Nissei Bilis Co., Ltd., Ohtsu, Japan and Keari Co., Ltd., Wakayama, Japan) (the method is described above). The Descemet's membrane including corneal endothelial cells were exfoliated, and the corneal endothelial cells were mechanically exfoliated together with basement membranes, followed by treatment using dispase or collagenase (ROCHE catalog number: 10 103 586 001) and then primary culture. Typically, treatment was performed using 1 mg/mL collagenase A (Roche Applied Science, Penzberg, Germany) at 37° C. for 2 hours. For the culture medium, DMEM (INVITROGEN catalog number 12320) was used with 10% FBS (BIOWEST, catalog number: S1820-500) and 2 ng/ml basic FGF (INVITROGEN, catalog number: 13256-029) added thereto. […] In addition, after the cells were fixed, immunostaining was performed using ZO-1, Na^+/K^+-ATPase as a function-associated marker, followed by observation through a fluorescence microscope. […]

On to `NC(=O)c1ccc(-c2nc(-c3ccc4c(c3)OCO4)c(-c3ccccn3)[nH]2)cc1` [SB431542], for which the cell form result is “a layer of cells with a small difference in size of a polygonal shape”.
